The target of data set [1] is T1, LRP-1 (Mus musculus, UniProt Q91ZX7).
T1 construct: from tissue; host or cells: brain of living mice (iv, icv or chronic icv antisense)
The data set can be described thus: Recognition of a novel object after chronic icv infusion. Format: in vivo. To be noted: 2 wk icv infusion 100 ng/h. Here is the method:
Recognition of a novel object: This method has been described previously(Jaeger et al., 2002). Briefly, recognition memory for a novel object was assessed in cocktail and random antisense treated animals (100 ng/h two week infusion). Prior to testing, mice were habituated for three consecutive days to the testing apparatus (a 58×66×11 cm white, plastic box). During habituation, each mouse was allowed to freely explore the testing apparatus for 5 min. On the first day of training, mice were placed in the testing apparatus for 5 min and allowed to explore a pair of identical objects (Objects A and B; both were 7×6.3×5.1 cm). On the second day of training, one of the original objects was replaced with a new, or novel, object (Object C; 8.2×3.8×7.4 cm). Mice were placed in the testing apparatus for 5 min and the amount of time each mouse spent sniffing or touching the novel object was recorded by an observer. Results from this study were expressed as the percent of time spent investigating the novel object.

Data set [2] deals with LRP-1. As to the kind of experiment: Immunohistochemistry of LRP-1 in isolated mouse brain microvessels (MBMs). It counts as cell-based. To be noted: 10 μg/mL, 24 h, buffer = 100%. The text has this: Isolation of mouse brain microvessels (MBMs): Mouse brain microvessels (MBMs) were isolated by a modification of a method of Gerhart et al (Brain Res Bull 21, 785-793, 1998). All glassware was pre-coated with phosphate buffered saline (PBS) supplemented with 1% BSA (1% BSA/PBS). This was done to minimize adhesion and to maximize recovery of microvessels. Briefly, ten to twelve cerebral cortices from adult male CD-1 mice were collected and the meninges removed. They were homogenized on ice in 5 mL of cold stock buffer (25 mM HEPES, 1% dextran and 1 envelope of Minimum Essential Medium (Invitrogen), pH 7.4). The homogenate was then filtered through a series of nylon mesh membranes (300 μm, then twice through 100 μm; Spectrum, Houston, Tex.), mixed with an equal volume of 40% dextran in stock buffer, and centrifuged at 3,000×g for 30 min at 4° C. […]
Immunohistochemistry of LRP-1 in isolated MBMs: Isolated MBMs were treated with either incubation buffer, random antisense, or antisense cocktail (10 μg/mL) in incubation buffer for 24 h. […] Fluorescence was detected with Zeiss Axiovert 40 CFL fluorescent microscope (Carl Zeiss, Inc., Thornwood, N.Y.). Images were obtained from 5-6 microvessels in each group and mean fluorescent intensity was quantified using Image J analysis software (National Institute of Health, USA).

Another data set concerns the target T2, beta-F1 ATPase (Mus musculus, UniProt P56480).
T2 construct: from tissue; host or cells: brain / blood-brain barrier of living mice (CD-1; SAMP8 in the T-maze study)
The data set can be described thus: Brain perfusion uptake of I-PACAP27/I-PACAP38 after iv antisense. Format: in vivo. To be noted: single tail vein injection 24 h before study, 10 μg/mouse. On the procedure: To test the effectiveness of PTS-6 antisenses after their intravenous administration, two month old male CD-1 mice kept on a 12/12 hour light/dark cycle with food and water freely available were given an injection by tail vein of 0.9% saline with or without 10 μg/mouse of each of the three antisenses. To determine the specificity of the PTS-6 antisense on I-PACAP27 efflux, three other antisenses were also injected iv. These were:
After 24 h, the mice were anesthetized with urethane and both jugular veins exposed. The thorax was opened, the descending thoracic aorta clamped, both jugular veins severed, and lactated Ringer's solution containing I-PACAP27 (250,000 cpm/ml) perfused through the left ventricle of the heart at the rate of 2 ml/min. ^131I-PACAP38 (hereafter referred to as I-PACAP38) was perfused in some mice treated with PTS-6 antisense. After 5 min, the perfusion was stopped and 20 ml of lactated Ringer's solution was infused through the left ventricle of the heart to wash out the vascular space of the brain. The level of radioactivity was determined in the brain and in an aliquot of the perfusion fluid and results expressed as the brain/perfusion ratio in units of μl/g.

Data set [3] concerns the target T1, LRP-1. The data set can be described thus: Brain efflux of I-Aβ42 after acute icv antisense. It counts as in vivo. To be noted: 24 h after icv antisense, compared to saline. The text has this:
In vivo brain-to-blood efflux rate of icv antisense: A standard method was used to quantify brain-to-blood efflux rates (Banks et al., Neuroscience 121, 487-492, 2003; Jaeger et al., Proc Natl Acad Sci USA 102, 12495-12500, 2005). First, mice were anesthetized with an i.p. injection of 40% urethane. After the scalp was removed, a hole was made through the cranium (1.0 mm lateral and 0.5 mm posterior to bregma) with a 26-gauge needle. All of the needle except 2.5 to 3.0 mm of the tip was covered by PE-10 tubing. […] Injections were made into the lateral ventricle (icv) with a 1.0 μl Hamilton syringe.
For studies in which the -Slope is reported, this value was determined from a graph created with two time points (0 and 10 min) as described above. After the log of the mean % of the injected dose of radioactivity (amount detected/amount injected*100=% Inj Dose) in each brain was plotted against time (min), linear regression was used to create a line between the multiple values at these two points.
In some experiments, mice received two icv injections (antisense cocktail or saline icv and, at t=30 min or t=24 h, icv I-Aβ42). In these cases, the dose of antisense given was 200 ng/μl LR-BSA and the dose of I-Aβ42 given was 5×10^3 cpm/μl LR-BSA.
In the specificity experiment, mice received two icv injections. […]

For the next data set, the system named is P-glycoprotein. To be noted: intracranial introduction, rat; cited from earlier work.
For data set [4], the target named is T1, LRP-1. As to the kind of experiment: Abluminal-to-luminal transport of I-Aβ42 in primary BMEC monolayers. To be noted: 1 μg/mL unlabeled Aβ42 in abluminal chamber. Format: cell-based. Here is the method:
Isolation of mouse brain microvascular endothelial cells (BMECs): BMECs were isolated using a modified method of Szabó et al. (Neurobiology 5, 1-16 (1997). In brief, cerebral cortices from 8-week-old CD-1 mice were isolated, cleaned of meninges, and minced. The homogenate was digested with collagenase type II (1 mg/mL) and DNase I (30 U/mL) in Dulbecco's Modified Eagle Media (DMEM) [containing 100 units/mL penicillin, 100 μg/mL streptomycin, 50 μg/mL gentamicin and 2 mM GlutaMAX-I (Invitrogen, Carlsbad, Calif.)] at 37° C. for 40 min. After digestion, 20% bovine serum albumin (BSA) dissolved in DMEM was added. The sample was then centrifuged at 1,000×g for 20 min, the supernatant containing the neurons and glial cells was removed, and the pellet containing the microvessels further digested at 37° C. for 30 min with collagenase/dispase at a concentration of 1 mg/mL (Roche, Mannheim, Germany) and DNase I (30 U/mL dissolved in DMEM). After the second enzyme digestion, we then layered the pellet on a 33% Percoll (Amersham Biosciences, Piscataway, N.J.) gradient and centrifuged at 1,000×g for 10 min to separate the microvessels. To create the Percoll gradient, 33% Percoll solution (8 mL Percoll, 14.4 mL phosphate buffered saline; PBS, 0.8 mL plasma derived serum; PDS, and 0.8 mL 10×PBS) was centrifuged at 20,300×g for 1 h, prior to this step. […]

Oligonucleotides are written 5' to 3', each unit as a sugar letter and its base; * is a phosphorothioate linkage, no mark a phosphodiester; rarer units and linkages stand in square brackets, end groups in braces. Plain capitals give the bases only. d = 2'-deoxy (DNA)

T1 sequence (Q91ZX7 20-4545): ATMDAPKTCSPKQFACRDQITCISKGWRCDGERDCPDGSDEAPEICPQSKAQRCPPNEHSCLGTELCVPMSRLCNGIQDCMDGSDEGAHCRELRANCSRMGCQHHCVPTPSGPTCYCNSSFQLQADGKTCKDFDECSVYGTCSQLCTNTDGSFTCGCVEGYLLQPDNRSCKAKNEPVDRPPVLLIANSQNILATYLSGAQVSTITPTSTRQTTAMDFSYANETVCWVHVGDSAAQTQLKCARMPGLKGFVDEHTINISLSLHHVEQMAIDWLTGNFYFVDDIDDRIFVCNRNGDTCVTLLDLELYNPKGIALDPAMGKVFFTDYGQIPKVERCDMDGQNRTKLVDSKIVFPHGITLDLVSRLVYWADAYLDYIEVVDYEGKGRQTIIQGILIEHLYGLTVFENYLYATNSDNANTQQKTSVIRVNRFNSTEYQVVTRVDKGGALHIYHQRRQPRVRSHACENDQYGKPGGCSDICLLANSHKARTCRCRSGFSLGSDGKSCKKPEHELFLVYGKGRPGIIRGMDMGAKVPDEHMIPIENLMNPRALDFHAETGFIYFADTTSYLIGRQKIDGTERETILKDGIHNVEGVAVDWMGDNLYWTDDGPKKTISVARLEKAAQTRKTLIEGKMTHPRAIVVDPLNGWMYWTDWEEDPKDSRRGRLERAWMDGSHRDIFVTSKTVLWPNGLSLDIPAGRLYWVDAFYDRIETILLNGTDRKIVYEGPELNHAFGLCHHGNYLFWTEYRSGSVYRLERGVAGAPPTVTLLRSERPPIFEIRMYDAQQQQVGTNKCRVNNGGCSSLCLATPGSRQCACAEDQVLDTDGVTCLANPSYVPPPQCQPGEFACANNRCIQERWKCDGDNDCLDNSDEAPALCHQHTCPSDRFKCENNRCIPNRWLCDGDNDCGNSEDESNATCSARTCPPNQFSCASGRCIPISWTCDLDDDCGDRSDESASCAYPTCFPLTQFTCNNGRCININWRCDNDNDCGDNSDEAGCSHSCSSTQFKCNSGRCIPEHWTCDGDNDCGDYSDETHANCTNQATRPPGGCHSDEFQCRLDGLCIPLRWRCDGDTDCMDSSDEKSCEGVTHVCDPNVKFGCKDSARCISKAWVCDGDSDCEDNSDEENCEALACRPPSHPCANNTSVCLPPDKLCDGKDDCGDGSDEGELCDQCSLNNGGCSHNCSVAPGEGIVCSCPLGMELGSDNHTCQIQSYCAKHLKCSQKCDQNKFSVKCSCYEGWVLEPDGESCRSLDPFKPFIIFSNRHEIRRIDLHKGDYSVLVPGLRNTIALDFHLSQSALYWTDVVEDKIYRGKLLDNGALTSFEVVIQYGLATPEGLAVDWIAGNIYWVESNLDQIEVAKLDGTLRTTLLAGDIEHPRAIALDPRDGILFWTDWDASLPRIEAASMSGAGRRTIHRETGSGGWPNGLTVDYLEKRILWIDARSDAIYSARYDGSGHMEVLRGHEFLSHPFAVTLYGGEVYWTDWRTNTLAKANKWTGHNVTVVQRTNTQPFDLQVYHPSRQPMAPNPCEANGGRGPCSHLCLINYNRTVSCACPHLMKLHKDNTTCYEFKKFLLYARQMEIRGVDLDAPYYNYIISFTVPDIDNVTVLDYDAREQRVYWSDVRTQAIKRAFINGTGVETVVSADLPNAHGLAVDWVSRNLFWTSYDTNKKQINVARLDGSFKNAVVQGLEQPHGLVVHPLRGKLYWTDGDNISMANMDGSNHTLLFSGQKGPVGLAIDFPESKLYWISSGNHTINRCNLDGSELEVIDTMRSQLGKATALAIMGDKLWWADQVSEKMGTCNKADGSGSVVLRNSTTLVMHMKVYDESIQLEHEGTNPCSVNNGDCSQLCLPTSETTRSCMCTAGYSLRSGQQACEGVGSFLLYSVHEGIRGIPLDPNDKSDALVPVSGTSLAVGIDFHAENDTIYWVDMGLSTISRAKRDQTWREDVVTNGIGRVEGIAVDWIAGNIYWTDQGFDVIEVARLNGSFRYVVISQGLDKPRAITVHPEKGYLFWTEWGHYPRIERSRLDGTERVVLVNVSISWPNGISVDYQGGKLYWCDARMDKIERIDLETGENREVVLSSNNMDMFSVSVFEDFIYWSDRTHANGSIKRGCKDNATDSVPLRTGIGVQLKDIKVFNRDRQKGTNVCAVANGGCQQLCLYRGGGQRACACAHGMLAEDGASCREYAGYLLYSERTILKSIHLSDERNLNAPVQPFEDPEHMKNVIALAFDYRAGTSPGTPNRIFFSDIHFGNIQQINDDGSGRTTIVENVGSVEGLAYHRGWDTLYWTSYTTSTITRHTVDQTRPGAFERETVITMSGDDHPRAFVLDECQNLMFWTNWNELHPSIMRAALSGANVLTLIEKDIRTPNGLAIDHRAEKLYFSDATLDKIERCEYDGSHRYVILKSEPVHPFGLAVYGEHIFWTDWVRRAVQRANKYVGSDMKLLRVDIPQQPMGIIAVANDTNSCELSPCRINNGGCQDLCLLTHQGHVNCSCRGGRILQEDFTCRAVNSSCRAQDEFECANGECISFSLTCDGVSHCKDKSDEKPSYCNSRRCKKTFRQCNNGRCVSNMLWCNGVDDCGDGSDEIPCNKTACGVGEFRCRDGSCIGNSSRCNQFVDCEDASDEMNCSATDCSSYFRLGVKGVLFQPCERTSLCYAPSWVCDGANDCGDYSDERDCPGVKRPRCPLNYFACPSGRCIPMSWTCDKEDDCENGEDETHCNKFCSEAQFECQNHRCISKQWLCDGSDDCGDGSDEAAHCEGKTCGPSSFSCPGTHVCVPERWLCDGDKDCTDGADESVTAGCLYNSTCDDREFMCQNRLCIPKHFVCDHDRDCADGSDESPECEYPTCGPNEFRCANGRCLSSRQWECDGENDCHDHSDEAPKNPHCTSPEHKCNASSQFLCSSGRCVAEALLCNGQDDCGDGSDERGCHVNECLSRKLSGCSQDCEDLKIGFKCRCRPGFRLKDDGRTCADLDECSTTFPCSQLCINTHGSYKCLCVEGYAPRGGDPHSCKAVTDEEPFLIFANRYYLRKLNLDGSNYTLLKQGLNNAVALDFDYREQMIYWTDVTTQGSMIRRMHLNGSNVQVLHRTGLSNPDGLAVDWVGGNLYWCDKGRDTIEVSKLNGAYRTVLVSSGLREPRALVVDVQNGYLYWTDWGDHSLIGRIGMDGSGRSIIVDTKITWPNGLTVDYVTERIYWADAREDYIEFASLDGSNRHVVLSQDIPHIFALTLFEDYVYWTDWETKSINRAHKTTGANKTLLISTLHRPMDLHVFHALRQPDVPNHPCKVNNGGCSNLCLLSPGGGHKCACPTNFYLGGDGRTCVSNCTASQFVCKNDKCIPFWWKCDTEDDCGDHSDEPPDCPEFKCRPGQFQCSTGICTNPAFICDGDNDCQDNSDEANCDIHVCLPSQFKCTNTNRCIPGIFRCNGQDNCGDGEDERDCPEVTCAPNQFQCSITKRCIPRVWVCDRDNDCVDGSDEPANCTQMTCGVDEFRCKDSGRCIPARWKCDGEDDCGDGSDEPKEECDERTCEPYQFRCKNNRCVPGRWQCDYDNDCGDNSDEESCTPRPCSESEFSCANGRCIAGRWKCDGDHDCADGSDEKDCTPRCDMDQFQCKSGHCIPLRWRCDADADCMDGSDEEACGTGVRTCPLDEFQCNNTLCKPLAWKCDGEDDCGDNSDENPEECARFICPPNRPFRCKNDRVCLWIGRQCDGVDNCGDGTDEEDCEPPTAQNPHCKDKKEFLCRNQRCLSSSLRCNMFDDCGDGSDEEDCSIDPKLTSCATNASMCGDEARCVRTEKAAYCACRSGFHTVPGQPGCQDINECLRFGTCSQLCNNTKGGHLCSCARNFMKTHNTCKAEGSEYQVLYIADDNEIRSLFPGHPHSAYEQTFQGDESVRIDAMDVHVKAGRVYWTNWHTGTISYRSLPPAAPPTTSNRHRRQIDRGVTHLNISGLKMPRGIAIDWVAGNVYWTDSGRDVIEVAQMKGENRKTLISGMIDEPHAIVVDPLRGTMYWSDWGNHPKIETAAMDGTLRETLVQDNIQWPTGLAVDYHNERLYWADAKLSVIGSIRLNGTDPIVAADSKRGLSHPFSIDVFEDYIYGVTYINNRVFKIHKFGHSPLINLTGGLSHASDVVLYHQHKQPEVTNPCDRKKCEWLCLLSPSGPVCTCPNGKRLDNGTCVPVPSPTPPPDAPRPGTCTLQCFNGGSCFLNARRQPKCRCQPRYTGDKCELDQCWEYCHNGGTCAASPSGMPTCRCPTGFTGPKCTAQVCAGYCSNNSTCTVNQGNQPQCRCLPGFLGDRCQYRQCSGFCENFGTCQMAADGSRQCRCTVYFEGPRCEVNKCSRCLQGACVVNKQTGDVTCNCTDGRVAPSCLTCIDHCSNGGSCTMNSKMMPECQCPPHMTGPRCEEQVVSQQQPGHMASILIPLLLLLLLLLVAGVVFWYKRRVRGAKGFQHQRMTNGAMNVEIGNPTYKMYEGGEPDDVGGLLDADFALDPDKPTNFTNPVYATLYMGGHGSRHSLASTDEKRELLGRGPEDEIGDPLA
T2 sequence (P56480 47-529): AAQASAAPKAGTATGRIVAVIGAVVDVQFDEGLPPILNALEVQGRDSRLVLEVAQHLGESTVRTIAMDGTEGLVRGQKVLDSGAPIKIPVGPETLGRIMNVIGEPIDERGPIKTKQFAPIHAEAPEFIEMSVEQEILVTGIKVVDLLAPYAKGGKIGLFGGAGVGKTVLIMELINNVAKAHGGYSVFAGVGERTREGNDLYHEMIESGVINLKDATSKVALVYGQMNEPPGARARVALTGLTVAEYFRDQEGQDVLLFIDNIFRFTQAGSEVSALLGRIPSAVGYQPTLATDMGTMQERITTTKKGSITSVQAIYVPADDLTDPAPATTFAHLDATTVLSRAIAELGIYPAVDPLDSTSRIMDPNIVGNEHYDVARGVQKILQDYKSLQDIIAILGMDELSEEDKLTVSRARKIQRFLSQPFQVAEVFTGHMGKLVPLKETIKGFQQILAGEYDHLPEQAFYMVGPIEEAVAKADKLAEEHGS

With “5′-(_P═S)GAGAAGGTTGTGTGATCTTCA (antisense dG*dA*dG*dA*dA*dG*dG*dT*dT*dG*dT*dG*dT*dG*dA*dT*dC*dT*dT*dC*dA; listed as Mus musculus) [random antisense]”, the “time spent investigating the novel object” value with LRP-1 [1] is on record as “spent a majority of their time investigating the new object”. The “mean fluorescent intensity (LRP-1 immunofluorescence)” value in the data set on LRP-1 [2] was found to be 111.14%.

For the substance “5′-(_P═S)TCATGAAGCC-3′ (antisense dT*dC*dA*dT*dG*dA*dA*dG*dC*dC; listed as Mus musculus)”, the “uptake of I-PACAP27 delivered by brain perfusion” value with beta-F1 ATPase was “no statistically significant effect”. In addition, the “brain efflux of I-Aβ42 (specificity experiment)” value in the data set with LRP-1 [3] is “significant increase”.

As to “5′-GGACTAAATGCTTTCCTTTGTGACAG-3′ (listed as DNA, chemistry not given here; listed as Rattus norvegicus) [SEQ ID NO 16]”, the “P-glycoprotein expression in the brain” value in the data set on P-glycoprotein is reported as “reduction of the rat P-glycoprotein expression”.

As for “Aβ42: 42 amino acid murine amyloid beta (DAEFGHDSGFEVRHQKLVFFAEDVGSNKGAIIGLMVGGVVIA; Amyloid-beta protein 42; UniProt P12023 672-713, looked up)”, the “abluminal-to-luminal transport of I-Aβ42 (saturability)” value with LRP-1 [4] was “significantly (p<0.01) inhibited”.

In the case of “5′-(_P═S)GGCGCCTTTGTTCGAACCCACATCTTCAGCAAAGAACACCAG-3′ (antisense dG*dG*dC*dG*dC*dC*dT*dT*dT*dG*dT*dT*dC*dG*dA*dA*dC*dC*dC*dA*dC*dA*dT*dC*dT*dT*dC*dA*dG*dC*dA*dA*dA*dG*dA*dA*dC*dA*dC*dC*dA*dG; listed as Mus musculus)”, in the data set with beta-F1 ATPase, the “uptake of I-PACAP27 delivered by brain perfusion” value is given as “no statistically significant effect”. The “brain efflux of I-Aβ42 (specificity experiment)” value in the data set with LRP-1 [3] is recorded as “significant increase”.

(Values after US8466118B2, “Modulation of blood brain barrier protein expression” (Saint Louis University, priority 2007, dated 2013).)
